# Active and inactive are the calls of the source.
# Tests used:
# [1] = AlphaScreen signal interference compounds, dose response, artefact control for ARNT-TACC3 interaction inhibitor project, biochemical, luminescence, cherry-pick (AID 651705); format: functional;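 further: AlphaScreen bead proximity signal that flags compounds interfering with the detection technology; potency reflects signal decrease which marks the compound as an assay artifact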
# [2] = biological target: T1, Corticotropin-releasing factor receptor 2/Corticotropin-releasing factor-binding protein (Homo sapiens, UniProt P24387+Q13324); assay: activators of CRF receptor 2 with binding protein – uHTS hits, confirmation (AID 602473); format: functional; conditions: read-out: EC50_Mean
# T1 sequence (Q13324 whole entry): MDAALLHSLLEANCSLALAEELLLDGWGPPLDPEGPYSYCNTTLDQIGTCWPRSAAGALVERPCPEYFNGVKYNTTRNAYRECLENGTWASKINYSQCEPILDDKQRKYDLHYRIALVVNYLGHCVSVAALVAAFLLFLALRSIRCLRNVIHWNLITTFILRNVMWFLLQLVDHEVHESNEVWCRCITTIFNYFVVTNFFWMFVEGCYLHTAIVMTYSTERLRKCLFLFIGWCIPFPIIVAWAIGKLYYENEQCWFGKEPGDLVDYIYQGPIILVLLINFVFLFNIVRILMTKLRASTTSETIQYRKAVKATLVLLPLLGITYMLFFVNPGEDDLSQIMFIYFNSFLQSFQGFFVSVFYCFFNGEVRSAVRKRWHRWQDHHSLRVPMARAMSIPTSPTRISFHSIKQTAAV
# T1 sequence (P24387 whole entry): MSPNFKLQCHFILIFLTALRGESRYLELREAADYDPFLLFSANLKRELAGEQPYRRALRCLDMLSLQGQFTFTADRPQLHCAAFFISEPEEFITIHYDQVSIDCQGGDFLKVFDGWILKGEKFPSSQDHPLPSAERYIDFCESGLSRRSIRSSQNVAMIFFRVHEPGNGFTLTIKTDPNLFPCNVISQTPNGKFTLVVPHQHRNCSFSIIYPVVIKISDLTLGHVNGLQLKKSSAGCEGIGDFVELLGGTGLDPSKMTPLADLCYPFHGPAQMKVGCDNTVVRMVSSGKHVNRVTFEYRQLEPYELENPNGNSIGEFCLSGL
# [3] = biological target: T1, Corticotropin-releasing factor receptor 2/Corticotropin-releasing factor-binding protein; assay: Dose Response confirmation of uHTS hits for small molecule antagonists of the CRF-binding protein and CRF-R2 receptor complex.; format: functional; conditions: read-out: IC50_Mean
# [4] = Luminescence Cell-Based Dose Retest to Confirm Inhibitors of Cancer Stem Cells. [Related pubchem assays (depositor defined):AID2717, AID2721]; format: functional; conditions: Homo sapiens
# [5] = CRF-BP/CRF-R2 complex antagonists, dose response, cell-based, uHTS hits, 384-well (AID 651639); format: functional, Homo sapiens; conditions: read-out: IC50_Mean
# [6] = biological target: T2, Low molecular weight phosphotyrosine protein phosphatase (Homo sapiens, UniProt P24666); format: functional; conditions: read-out: IC50_Mean
# T2 sequence (P24666 whole entry): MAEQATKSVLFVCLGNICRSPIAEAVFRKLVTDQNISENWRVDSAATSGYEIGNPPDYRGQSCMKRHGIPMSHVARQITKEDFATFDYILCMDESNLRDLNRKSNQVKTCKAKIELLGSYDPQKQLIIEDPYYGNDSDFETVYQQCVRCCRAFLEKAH
# [7] = biological target: T2, Low molecular weight phosphotyrosine protein phosphatase; format: functional; conditions: read-out: IC50_Mean; remark: listed apart in the source
# [8] = biological target: Nonstructural protein 1 (Influenza A virus, UniProt Q194T2); format: functional, Influenza A virus (A/California/07/2009(H1N1))
# [9] = system: HEK293; assay: optical interference in Abeta FP readout, dose response, artefact control for IDE activator project, biochemical, fluorescence polarization (AID 588442); format: functional, cell-based; conditions: Homo sapiens
# [10] = biological target: T3, Insulin-degrading enzyme (Homo sapiens, UniProt P14735); assay: activators of endogenous IDE in HEK cells, dose response, cell-based, fluorescence polarization (AID 588439); format: functional
# T3 sequence (P14735 whole entry): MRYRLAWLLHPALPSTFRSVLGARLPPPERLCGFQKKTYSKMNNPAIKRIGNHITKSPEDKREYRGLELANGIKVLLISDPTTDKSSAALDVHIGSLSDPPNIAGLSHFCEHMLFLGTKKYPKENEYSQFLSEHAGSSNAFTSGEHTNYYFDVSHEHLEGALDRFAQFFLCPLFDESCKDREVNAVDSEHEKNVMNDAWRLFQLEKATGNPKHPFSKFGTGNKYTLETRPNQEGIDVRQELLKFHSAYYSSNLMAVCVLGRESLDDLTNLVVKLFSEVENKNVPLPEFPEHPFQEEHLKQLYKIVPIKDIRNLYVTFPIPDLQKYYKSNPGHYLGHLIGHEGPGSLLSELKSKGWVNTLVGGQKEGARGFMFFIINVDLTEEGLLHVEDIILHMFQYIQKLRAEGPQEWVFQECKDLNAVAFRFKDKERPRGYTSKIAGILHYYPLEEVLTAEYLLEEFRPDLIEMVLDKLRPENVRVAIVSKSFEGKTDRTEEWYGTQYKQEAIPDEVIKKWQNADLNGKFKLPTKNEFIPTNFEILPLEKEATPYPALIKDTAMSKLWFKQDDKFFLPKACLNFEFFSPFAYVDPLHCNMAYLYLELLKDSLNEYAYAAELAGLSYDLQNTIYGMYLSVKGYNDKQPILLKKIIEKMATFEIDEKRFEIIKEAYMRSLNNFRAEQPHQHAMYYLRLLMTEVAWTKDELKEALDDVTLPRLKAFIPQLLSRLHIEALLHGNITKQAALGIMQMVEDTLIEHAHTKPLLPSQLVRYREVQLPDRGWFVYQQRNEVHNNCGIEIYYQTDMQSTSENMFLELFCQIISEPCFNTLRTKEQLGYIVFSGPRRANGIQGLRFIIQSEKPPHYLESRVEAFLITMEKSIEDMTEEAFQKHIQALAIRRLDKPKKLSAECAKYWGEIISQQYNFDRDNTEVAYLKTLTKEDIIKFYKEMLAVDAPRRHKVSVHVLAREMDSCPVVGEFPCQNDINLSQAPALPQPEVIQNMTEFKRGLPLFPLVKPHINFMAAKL
# [11] = system: HEK293; assay: HEK cell cytotoxicity by LDH release, dose response, cytotoxicity control for IDE activator project, fluorescence, HEK cells (AID 588440); format: functional, cell-based; conditions: Homo sapiens;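 further: cytotoxicity by LDH release measuring loss of membrane integrity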
# [12] = biological target: T3, Insulin-degrading enzyme; assay: activators of recombinant IDE enzyme, dose response, counter-screen for IDE activator project, biochemical, fluorescence polarization (AID 588681)
# [13] = biological target: Cytochrome P450 2D6 (Homo sapiens, UniProt P10635);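 further: CYP2D6 member of a cytochrome P450 panel assay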
# Sequence of Cytochrome P450 2D6 (P10635 whole entry): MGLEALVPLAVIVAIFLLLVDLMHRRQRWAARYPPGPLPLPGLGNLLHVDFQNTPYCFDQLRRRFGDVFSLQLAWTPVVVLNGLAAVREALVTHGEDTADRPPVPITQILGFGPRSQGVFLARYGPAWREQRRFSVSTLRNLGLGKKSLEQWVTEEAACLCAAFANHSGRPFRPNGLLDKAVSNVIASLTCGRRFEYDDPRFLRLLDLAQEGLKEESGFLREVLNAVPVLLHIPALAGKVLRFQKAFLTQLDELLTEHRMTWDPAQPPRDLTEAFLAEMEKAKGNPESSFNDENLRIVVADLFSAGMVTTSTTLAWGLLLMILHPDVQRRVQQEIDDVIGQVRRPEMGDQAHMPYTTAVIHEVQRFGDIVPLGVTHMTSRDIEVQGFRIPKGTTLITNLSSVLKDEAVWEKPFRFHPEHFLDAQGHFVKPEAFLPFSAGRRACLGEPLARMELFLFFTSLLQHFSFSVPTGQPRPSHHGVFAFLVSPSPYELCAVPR
# Sequence of Nonstructural protein 1 (Q194T2 whole entry): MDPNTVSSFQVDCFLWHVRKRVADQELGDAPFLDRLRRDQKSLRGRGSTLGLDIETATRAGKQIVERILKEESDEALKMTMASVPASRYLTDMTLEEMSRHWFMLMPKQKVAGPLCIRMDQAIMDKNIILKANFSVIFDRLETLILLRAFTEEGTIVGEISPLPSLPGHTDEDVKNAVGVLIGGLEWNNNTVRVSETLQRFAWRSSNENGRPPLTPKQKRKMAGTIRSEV
compound,measurement,setting,value
Cc1cccc(C(=O)Nc2nnc(C3=COCCO3)o2)c1,AC50,[1],128 µM (active)
CCN(c1ccccc1)c1nc(C#N)nc(N(CC)c2ccccc2)n1,EC50,[2],> 53 µM (inactive)
same,IC50,[3],0.723 µM (active)
same,AC50,[4],3.66 µM (active)
same,IC50,[5],6 µM (active)
O=C(OCCNc1nc(-c2ccccc2)nc2ccccc12)c1cccnc1,IC50,[6],7.51 µM (active)
same,IC50,[7],23.1 µM (inactive)
O=C(O)c1ccc(N=Nc2c(O)ccc3ncccc23)cc1,IC50,[8],3.07 µM (active)
same,EC50,[9],30.9 µM (inactive)
same,EC50,[10],7.38 µM (active)
same,IC50,[11],> 89.2 µM (inactive)
same,EC50,[12],6.69 µM (active)
Cc1c(CCO)c(=O)n(-c2ccccc2)n1S(=O)(=O)c1c(Cl)cc(Cl)cc1Cl,AC50,[13],7.94 µM (inconclusive)
same,AC50,[1],76.8 µM (active)

# Reference: ChEMBL document CHEMBL1201862, “PubChem BioAssay data set” (2004)
